# From patent US12252712B2, “Use of engineered liver tissue constructs for modeling liver disorders” (Organovo, Inc., priority 2017, dated 2025)
# Columns and labels:
# Assay type in all cases: cell-based, human
# [1] = tested on: bioprinted hepatic stellate cell tissues; test: Stimulation of bioprinted hepatic stellate cell tissues with TGF-β1
# Experimental: Cylindrical bio-ink comprising relevant heterogeneous (i.e., polytypic) cell populations were prepared. Physiologically-relevant populations (e.g., hepatic stellate cells (hSC) and human aortic endothelial cells (EC)) of cells were combined at specific ratios to generate proper bio-ink. Cells were maintained and propagated under standard laboratory conditions and cells were cultured in media either purchased from the same vendor as the cells, or media comprising components typically found in the primary literature to be conducive to standard cell culture practices for those particular cell types. Cell processing for bio-ink preparation was as follows: briefly, cells were liberated from standard tissue culture plastic by washing with cation-free phosphate buffered saline (PBS) and then exposed to 0.1-0.05% trypsin (Invitrogen). Liberated cells were then washed in serum-containing media, collected, counted, and combined in an appropriate ratio for the stimulation assay or experiment being conducted, and pelleted by centrifugation. Supernatant was then removed and the cell pellet was aspirated into a glass microcapillary, which was then submerged in complete media for approximately 15 to 20 minutes. This cylindrical bio-ink structure was then extruded into a non cell-adherent hydrogel mold, containing linear channels and held for 2 to 18 hours. Cylindrical bio-ink containing hSC: EC was then used to fabricate bioprinted tissue constructs and maintained and/or matured in a humidified chamber. Tissue segments were fabricated with initial dimensions of 1.25 mm×8 mm×0.25 mm (W×L×H). […]
# The bioprinted neotissues were then submerged in serum-containing complete cell culture media and placed in a standard humidified chamber, supplemented with 5% CO2 for maturation. […] The bioprinted tissues were evaluated for characteristics such as, but not limited to for tissue morphology, cell organization, extracellular matrix production, cell proliferation, cell viability, and construct integrity. […]
# [2] = tested on: bioprinted liver tissue construct; test: Steatosis induction in bioprinted liver tissue constructs (H&E, PLIN-5, Oil Red O)
# From the text: 3D bioprinted liver tissues comprised of cryopreserved primary human hepatocytes (Life Technologies, Carlsbad, CA, USA), hepatic stellate cells (ScienCell; Carlsbad, CA, USA), and HUVEC cells (Becton Dickinson; Tewksbury, MA, USA) were bioprinted directly into 24-well Transwell plates (FIG. 20A) using the Organovo NovoGen Bioprinter Instrument (Organovo, San Diego, CA, USA).
# Briefly, hepatic stellate cells and HUVEC cells were propagated per the manufacturer's instructions prior to tissue fabrication. Cryopreserved hepatocytes were thawed and prepared for use per the manufacturer's instructions. Separate high density bioinks comprising parenchymal cells (100% cellular paste, generated via compaction having hepatocyte cells) or nonparenchymal cells (150e6 cells/mL of endothelial cells and hepatic stellate cells formulated in hydrogel) were prepared and loaded into separate heads of the NovoGen Bioprinter Instrument within a standard biosafety cabinet. A computer script was then executed to deposit the bioinks in a two-compartment planar geometry (2 mm^2×0.5 mm) onto the membranes of standard 24-well 0.4 μm transwell culture inserts (Corning, Tewksbury, MA USA) via continuous deposition microextrusion with the non-parenchymal cells comprising the border regions of each compartment and the parenchymal cells filling each compartment. Following fabrication, the tissues were fed daily with 600 μL of 3D Liver Tissue Media, consisting of DMEM supplemented with Primary Hepatocyte Maintenance Supplements (Life Technologies, Carlsbad, CA, USA) and EGM-2 (Lonza, Basel, Switzerland), and incubated at 37° C. under humidified atmospheric conditions supplemented with 5% CO2. Tissues were allowed to mature in culture for at least three days following fabrication prior to initiation of experimentation, and were substantially free of pre-formed scaffold at the time of use. For the one month timecourse, tissues were fed daily for a total of 28 days post-fabrication.
# The bioprinted liver tissue construct of Example 6 was treated with nutrient-mediated accumulation to induce a steatosis phenotype. Specifically, to induce steatosis, a first liver tissue construct was treated with palmitic acid (PA) of varying concentrations (200 uM PA or 500 uM PA) daily for 3 weeks in the presence of high glucose media (DMEM-HG). A second liver tissue construct was treated with a 5% and 10% lipid mix of oleic acid (OC) to palmitic acid (PA) at a ratio of 2:1 daily for 3 weeks in the presence of high glucose media (DMEM-HG). Optionally, insulin or genipin (1 uM or 5 uM) can be used to stimulate fatty acid uptake into hepatocytes and enhance the fatty phenotype. […]
# The technical challenge is to make a 3D, bioprinted liver tissue construct having the disorder without adversely affecting hepatocyte function or tissue health (albumin, LOH activity, ALT), which most closely recapitulates the benign nature of steatosis commonly observed in clinical steatosis. Tissue health were assessed at 7 day intervals using biochemical assays that measure hepatocellular function (i.e., albumin) and injury (i.e., LOH and ALT) with n≥5 per treatment group. Greater than 5% fatty infiltrate into hepatocytes is considered steatotic; therefore, morphometric and biochemical assays were conducted to quantify hepatic lipid content. Tissue morphology and extracellular matrix (ECM) deposition were assessed using H&E and Trichrome staining, respectively, at 7 day intervals. […]
# [3] = tested on: immune competent bioprinted liver tissue constructs; test: NASH induction in bioprinted liver tissue constructs, histology (H&E, trichrome, desmin/α-SMA, CK18)
# Experimental: Kupffer cells (KCs) were added to the parenchymal region in the bioprinted liver tissue construct of Example 6.
# Separate high density bioinks comprising parenchymal cells (100% cellular paste, generated via compaction having human hepatocyte cells and human Kupffer cells) or nonparenchymal cells (150e6 cells/mL of endothelial cells and hepatic stellate cells formulated in hydrogel) were prepared and loaded into separate heads of the NovoGen Bioprinter™ Instrument within a standard biosafety cabinet. A computer script was then executed to deposit the bioinks in a two-compartment planar geometry (2 mm^2×0.5 mm) onto the membranes of standard 24-well 0.4 μm transwell culture inserts (Corning, Tewksbury, MA USA) via continuous deposition microextrusion with the non-parenchymal cells comprising the border regions of each compartment and the parenchymal cells filling each compartment.
# Here, the liver tissue construct having KCs was treated with 100 μg/ml of LPS and 500 uM palmitic acid daily for 21 days. LPS was used to activate the KCs in order to initiate inflammation. In turn, activated KCs release factors that activate hepatic stellate cells, which initiate fibrosis. […] Untreated tissues with and without KCs were used as controls.
# [4] = tested on: bioprinted liver tissue constructs; test: Caspase cleaved CK18 fragments (apoptosis) in bioprinted liver tissue constructs
# [5] = tested on: bioprinted liver tissue construct with Kupffer cells; test: Inflammatory cytokine release from bioprinted liver tissue constructs; conditions: co-treatment of LPS at 1 ug/mL with NASH induction, 14 days (FIG. 33)
# Experimental: Tissue health were assessed at 7 day intervals using biochemical assays on spent media that measure hepatocellular function as outlined in Aim 1 (n≥5/group). Histological endpoints used to assess tissue morphology and composition (H&E, CD31, Desmin, E-cadherin, Albumin), ECM deposition (trichrome), hepatic stellate cell activation (desmin, a-smooth muscle actin ratio), lipid vacuoles (perilipin) and lipid content (Oil red 0) were measured at weekly intervals. In order to determine baseline cytokine production in response to lipid treatment, inflammatory cytokine release were measured at 7 day intervals via chemiluminescence with the V-Plex Pro-Inflammatory Panel (Meso Scale Discovery, Rockville, MD), which measures TNF-α, IL-113, IL-6, IL-8, IL-4, IL-2, IL-13, IL-12p70, IL-10, and interferon-y (IFN-y).
# [6] = tested on: bioprinted liver tissues; test: Drug safety: alanine transferase (ALT) in culture medium of bioprinted liver tissues; conditions: diseased (NASH-induced with 12.5 mM fructose and 500 uM PA) tissue treated with OCA versus non-diseased tissue
# Experimental: The assessment of drug safety was also investigated using the bioprinted liver tissue constructs. Non-diseased (vehicle-treated) or diseased (NASH-induced with 12.5 mM fructose and 500 uM PA) bioprinted liver tissues were treated with OCA, followed by measurement of alanine transferase (ALT) in the culture medium, a liver enzyme elevated with hepatocellular injury. […] Significance was determined by One-way ANOVA with Dunnets Multiple Comparisons Test, with the increase in ALT levels for diseased tissue following OCA treatment having a P<0.0001 as compared to diseased tissue without OCA treatment. This provides a proof of concept for application of the NASH model in assessment of differential toxicity.
molecule,measurement,setting,value
TGF-β1: cytokine used to elicit a tissue-specific response,cell density (Trichrome),[1]; 0-50 ng/mL (FIG. 15),dramatic decreases in cell density
same,collagen deposition and construct size (Trichrome),[1]; 0-50 ng/mL (FIG. 15),increases in collagen deposition and construct size
same,tissue outgrowth formation (gross observation),"[1]; increasing concentrations 0, 1, 10, 50 ng/mL (FIG. 15)",increases in tissue outgrowth formation
"CCCCCCCC/C=C\CCCCCCCC(=O)O [OA, Oleic Acid]",lipid droplet (LD) size,[2]; 14 days of treatment (FIG. 27),larger sizes of LD's
same,fibrosis (TCM),"[3]; 7 days, 1 mM (FIG. 28A)",less fibrosis
same,macrovesicular steatosis (H&E),"[3]; 7 days, 1 mM (FIG. 28A)",increased incidence of macrovesicular steatosis
CCCCCCCCCCCCCCCC(=O)O [palmitic acid],"steatotic phenotype (incidence and size of lipid droplets, PLIN 5 staining)","[2]; 200 μM and 500 μM, daily for 21 days, vs untreated controls",induces a steatotic phenotype
same,"lipid accumulation fold change (Oil Red O, Image J)","[2]; 21 days, 500 μM vs 200 μM (FIG. 25B)",greater accumulation of lipid droplets
same,"lipid accumulation (Oil Red O, morphometric quantification)","[2]; 21 days, 200 and 500 uM, vs controls (FIG. 22)",significant dose-dependent increase in lipid accumulation
same,fibrosis (TCM),"[3]; 7 days, 1 mM (FIG. 28A)",increased incidence
same,putative ballooned hepatocytes (H&E),"[3]; 7 days, 1 mM (FIG. 28A)",increased incidence of putative ballooned hepatocytes
same,caspase cleaved cytokine (CK) 18 fragments,"[4]; 7 days, 1 mM, vs all other FFA treatments and untreated controls (FIG. 28B)",significantly higher levels
same,cytotoxicity,[4]; FIG. 28(B),increased cytotoxicity
lipopolysaccharide [LPS],putative hepatocellular ballooning,"[3]; 21 days of PA and fructose (12.5 mM) with constitutive 10 ug/mL treatment, vs controls (FIG. 43)",also observed
same,fibrosis and hepatocellular ballooning,[3]; 21 days of PA and fructose (12.5 mM) with constitutive 100 ug/mL LPS (FIG. 43),high degree of fibrosis with putative hepatocellular ballooning
same,"cytokine levels (IL-10, IL-1β, TNF-α, IL-6)",[5],significantly increased above NASH induction only
COC(=O)C1=CO[C@@H](O)[C@@H]2C(CO)=CC[C@H]12 [Genipin],"lipid accumulation fold change (Oil Red O, Image J)","[2]; 21 days, 5 μM Genipin added to 500 μM PA, vs 500 μM PA alone",did not further increase lipid accumulation
"CC[C@H]1[C@@H](O)[C@@H]2[C@H](CC[C@]3(C)[C@@H]([C@H](C)CCC(=O)O)CC[C@@H]23)[C@@]2(C)CC[C@@H](O)C[C@@H]12 [OCA, Obeticholic Acid]",alanine transferase (ALT) in the culture medium,[6],increased ALT
O=C(CO)[C@@H](O)[C@H](O)[C@H](O)CO [fructose],fibrosis (TCM),"[3]; 14 days, fructose 20 mM, OA or OA:PA 0.5 mM, vs controls (FIG. 32)",increased fibrosis
same,fibrosis (TCM),"[3]; 21 days, fructose 12.5 mM, PA 0.5 mM, vs controls (FIG. 31)",increased fibrosis
